{"source": "patent US20080045584A1", "about": "“Use of Docetaxel for Treating Hepatocellular Carcinoma” (priority 1999, published 2008)", "key": {"[1]": {"system": "Hep 3B cells", "details": "0.01 μM, 72 hours", "method": "(§1) The experiments detailed below involve human hepatoma cell lines Hep3B (ATCC designation HB 8064), HepG2 (ATCC designation HB 8065) and HA22T/VGH, and murine hepatoma cell line Hepa 1-6. These cells were cultured in DMEM (GIBCO, BRL) containing 10% fetal bovine serum (Hyclone), 0.01 mg/ml gentamycin and 0.1 mM non-essential amino acid. Cells were grown in a CO2 incubator at 37° C., with 5% CO2 and 95% filtered air.\n(§2) In the experiments detailed below the above hepatoma cells were treated with different concentrations of paclitaxel (0.001-10 μM) and docetaxel (0.001-10 μM) for 24 hours and 72 hours. Paclitaxel was dissolved in dimethylsulfoxide (DMSO) and docetaxel was dissolved in ethanol as stock solutions. The final concentration of vehicle was less than 0.1%.\n(§3) Cells were cultured in a 96 well cell culture cluster (COSTAR) at a density of 4×10^4 cells/ml. After drug treatment for 24 hours or 72 hours, medium was discarded and replaced with an equal volume (100 μl) of fresh medium containing MTT (0.456 mg/ml; 3-[4,5-Dimethylthiazol-2-yl]2,5-diphenyl-tetrazolium bromide) and incubated for 1.5 hours at 37° C. The fresh medium was then discarded, and 100 μl DMSO was then added. Cell viability was determined by colorimetric comparison by reading OD values from a microplate reader (SPECTRA MAX250) at an absorption wavelength of 570 nm.\n(§4) Data are the mean i standard error of mean from duplicate samples of three independent experiments."}, "[2]": {"system": "Hepa 1-6 cells", "details": "Hepa 1-6, 1 μM", "method": "as §1, §2, §3, §4"}, "[3]": {"system": "Hep 3B cells", "test": "Propidium iodide (PI) exclusion assay, flow cytometry", "assay_type": "cell-based, human", "method": "Cells were grown on 5-cm^2 flasks (CORNING) and treated with paclitaxel and docetaxel as set out above. Propidium iodide (10 μg/ml) was then added for 15 minutes incubation at 37° C. Then, medium was collected prior to harvest of the adherent cells. Both suspended and attached cells were collected and resuspended with 500 μl PBS for flow cytometry analysis as set out below. Debris signals were removed by FSC-SSC gating.\n(§5) Cells (10000) were analyzed on a Becton Dickinson FACS Calibur flow cytometer using an argon-ion laser (15 mWatt) with incident beam at 488 nm. For PI exclusion assay, red fluorescence was collected through a 585 nm filter and the cell debris signals were removed by FSC-SSC gating. Data were acquired and analyzed using FACS/CELL Quest software on a Power Macintosh 7600/120 computer. Apoptotic cells and cells at specific cycle phases were determined by ModFit LT software.\nData are mean±standard error of mean from duplicated sample of at least three independent experiments. Cells were treated with drugs for 24-72 hours, and membrane permeability was measured by flowcytometric analysis of propidium exclusion in viable hepatoma cells. Data are the percentage of cells with intact cell membrane as compared to control"}, "[4]": {"system": "HA22T/VGH cells", "test": "Flow cytometric analysis of DNA content (cell cycle, sub-G0/G1)", "assay_type": "cell-based, human", "method": "(§6) Lysing buffer (0.5% Triton X-100, 0.2 μg/ml Na2EDTA.2H2O, and 1% bovine serum albumin in PBS) was added to the cell pellets which were then left on ice for 15 minutes. 100% methanol pre-cooled to −20° C. was then added to the mixture, which was then centrifuged at 300×g for 5 minutes. The supernatant was discarded and the cell pellet was washed with PBS. The washed pellet was stained with a DNA staining solution (50 μg/ml propidium iodide, and 5 kunitz/ml of RNase A) for 30 minutes at 4° C. in the dark. The DNA content of each cell was measured using a Becton Dickinson FACS Calibur flow cytometer as set out below.\nas §5\n(§7) Table 1 gives figures for cell membrane permeability of the hepatoma cells, following treatment with paclitaxel and docetaxel. Table 2 details the percentage of apoptotic (sub-G0/G1) cells found after paclitaxel and docetaxel treatment."}, "[5]": {"system": "Hep 3B cells", "test": "Flow cytometric analysis of DNA content (cell cycle, sub-G0/G1)", "assay_type": "cell-based, human", "method": "as §6, §5, §7"}, "[6]": {"system": "Hep G2 cells", "test": "Flow cytometric analysis of DNA content (cell cycle, sub-G0/G1)", "assay_type": "cell-based, human", "details": "for apoptotic percentages (sub-G0/G1 cells): 0.001 μM", "method": "as §6, §5, §7"}, "[7]": {"system": "Hepa 1-6 cells", "test": "Flow cytometric analysis of DNA content (cell cycle, sub-G0/G1)", "assay_type": "cell-based, murine", "method": "as §6, §5, §7"}, "[8]": {"system": "Hep G2 cells", "test": "DNA fragmentation electrophoresis analysis", "assay_type": "cell-based, human", "details": "Hep G2, 0.1 and 1 μM, 72 hours", "method": "DNA fragmentation assessment was according to the method Herrmann et al, Nucleic Acids Res., 22, 5506-5507, 1994.\nBriefly, HEP G2 cells (2×10^7) were treated for 72 hours with paclitaxel and docetaxel as set out above and centrifuged. The thus obtained cell pellets were resuspended with NP-40 lysis buffer (1% NP-40 in 20 mM EDTA, 50 mM Tris-HCl, pH 7.5). After lysis of cells for a few seconds, the supernatants were collected (5 minutes at 1600×g). The extraction was repeated with the same lysis buffer. SDS (final concentration 1%) and RNase were added (final concentration 2.5 μg/μl) to supernatants and incubated for 2 hours at 56° C. followed by digestion with proteinase K (2.5 μg/μl) for 2 hours at 37° C. Then, the mixtures were added to 10 M ammonium acetate prior to 100% ethanol precipitation for 30 minutes at −20° C. The DNA was collected by centrifugation (10 min at 12000 ×g) followed by electrophoresis on 1.5% agarose gel.\nIn FIG. 3, M is a 100 base pair marker. […] Lanes 2 and 3 show mean paclitaxel (0.1 and 1 μM) treatment groups. Lanes 4 and 5 show mean docetaxel (0.1 and 1 μM) treatment groups."}}, "note": "Read-outs that look alike come from different tables or passages of the source.", "data": [{"smiles": "CC(=O)O[C@@]12CO[C@@H]1C[C@H](O)[C@@]1(C)C(=O)[C@H](O)C3=C(C)[C@@H](OC(=O)[C@H](O)[C@@H](NC(=O)OC(C)(C)C)c4ccccc4)C[C@@](O)([C@@H](OC(=O)c4ccccc4)[C@H]21)C3(C)C", "note": "[Docetaxel]", "values": [{"measurement": "reduction of viability", "setting": "[1]", "value": 37.06, "unit": "%"}, {"measurement": "maximum cytotoxicity", "setting": "[2]; 24 hours", "value": 65.34, "unit": "%"}, {"measurement": "maximum cytotoxicity", "setting": "[2]; 72 hours", "value": 30.71, "unit": "%"}, {"measurement": "percentage of cells with intact cell membrane as compared to control", "setting": "[3]; 24 hrs, 0.01 μM", "value": "93.80 ± 10.7", "unit": "%"}, {"measurement": "percentage of cells with intact cell membrane as compared to control", "setting": "[3]; 24 hrs, 0.1 μM", "value": "57.41 ± 6.8", "unit": "%"}, {"measurement": "percentage of cells with intact cell membrane as compared to control", "setting": "[3]; 24 hrs, 1 μM", "value": "57.39 ± 4.3", "unit": "%"}, {"measurement": "percentage of cells with intact cell membrane as compared to control", "setting": "[3]; 72 hrs, 0.01 μM", "value": "36.81 ± 14.7", "unit": "%"}, {"measurement": "percentage of cells with intact cell membrane as compared to control", "setting": "[3]; 72 hrs, 0.1 μM", "value": "36.25 ± 13.5", "unit": "%"}, {"measurement": "percentage of cells with intact cell membrane as compared to control", "setting": "[3]; 72 hrs, 1 μM", "value": "20.25 ± 14.4", "unit": "%"}, {"measurement": "% of apoptotic (sub-G0/G1) cells", "setting": "[4]; 24 hrs, 0.01 mM (text: μM)", "value": 41.75, "unit": "%"}, {"measurement": "% of apoptotic (sub-G0/G1) cells", "setting": "[4]; 24 hrs, 0.1 mM (text: μM)", "value": 18.61, "unit": "%"}, {"measurement": "% of apoptotic (sub-G0/G1) cells", "setting": "[4]; 24 hrs, 1 mM (text: μM)", "value": 22.94, "unit": "%"}, {"measurement": "% of apoptotic (sub-G0/G1) cells", "setting": "[4]; 72 hrs, 0.01 mM (text: μM)", "value": 56.64, "unit": "%"}, {"measurement": "% of apoptotic (sub-G0/G1) cells", "setting": "[4]; 72 hrs, 0.1 mM (table head; text: μM)", "value": 58.61, "unit": "%"}, {"measurement": "% of apoptotic (sub-G0/G1) cells", "setting": "[4]; 72 hrs, 1 mM (table head; text: μM)", "value": 60.98, "unit": "%"}, {"measurement": "% of apoptotic (sub-G0/G1) cells", "setting": "[5]; 24 hrs, 0.01 mM (text: μM)", "value": 59.14, "unit": "%"}, {"measurement": "% of apoptotic (sub-G0/G1) cells", "setting": "[5]; 24 hrs, 0.1 mM (table head; text: μM)", "value": 58.67, "unit": "%"}, {"measurement": "% of apoptotic (sub-G0/G1) cells", "setting": "[5]; 24 hrs, 0.1 mM (table head; text: μM), listed as docetaxel", "value": 58.69, "unit": "%"}, {"measurement": "% of apoptotic (sub-G0/G1) cells", "setting": "[5]; 24 hrs, 1 mM (text: μM)", "value": 65.74, "unit": "%"}, {"measurement": "% of apoptotic (sub-G0/G1) cells", "setting": "[5]; 72 hrs, 0.01 mM (text: μM)", "value": 64.12, "unit": "%"}, {"measurement": "% of apoptotic (sub-G0/G1) cells", "setting": "[5]; 72 hrs, 0.1 mM (text: μM)", "value": 81.66, "unit": "%"}, {"measurement": "% of apoptotic (sub-G0/G1) cells", "setting": "[5]; 72 hrs, 1 mM (text: μM)", "value": 79.33, "unit": "%"}, {"measurement": "apoptotic percentages (sub-G0/G1 cells)", "setting": "[6]; Hep G2, 24 hours", "value": 31.02, "unit": "%"}, {"measurement": "% of apoptotic (sub-G0/G1) cells", "setting": "[6]; Hep G2, 24 hrs, 0.01 mM (text: μM)", "value": 45.24, "unit": "%"}, {"measurement": "% of apoptotic (sub-G0/G1) cells", "setting": "[6]; Hep G2, 24 hrs, 0.1 mM (text: μM)", "value": 38.77, "unit": "%"}, {"measurement": "% of apoptotic (sub-G0/G1) cells", "setting": "[6]; Hep G2, 24 hrs, 1 mM (text: μM)", "value": 28.33, "unit": "%"}, {"measurement": "apoptotic percentages (sub-G0/G1 cells)", "setting": "[6]; Hep G2, 72 hours", "value": 21.92, "unit": "%"}, {"measurement": "% of apoptotic (sub-G0/G1) cells", "setting": "[6]; Hep G2, 72 hrs, 0.01 mM (text: μM)", "value": 42.45, "unit": "%"}, {"measurement": "% of apoptotic (sub-G0/G1) cells", "setting": "[6]; Hep G2, 72 hrs, 0.1 mM (text: μM)", "value": 42.44, "unit": "%"}, {"measurement": "% of apoptotic (sub-G0/G1) cells", "setting": "[6]; Hep G2, 72 hrs, 1 mM (text: μM)", "value": 56.66, "unit": "%"}, {"measurement": "% of apoptotic (sub-G0/G1) cells", "setting": "[7]; Hepa 1-6, 24 hrs, 0.01 mM (text: μM)", "value": 52.81, "unit": "%"}, {"measurement": "% of apoptotic (sub-G0/G1) cells", "setting": "[7]; Hepa 1-6, 24 hrs, 0.1 mM (text: μM)", "value": 50.76, "unit": "%"}, {"measurement": "% of apoptotic (sub-G0/G1) cells", "setting": "[7]; Hepa 1-6, 24 hrs, 1 mM (text: μM)", "value": 53.8, "unit": "%"}, {"measurement": "% of apoptotic (sub-G0/G1) cells", "setting": "[7]; Hepa 1-6, 72 hrs, 0.01 mM (text: μM)", "value": 31.25, "unit": "%"}, {"measurement": "% of apoptotic (sub-G0/G1) cells", "setting": "[7]; Hepa 1-6, 72 hrs, 0.1 mM (text: μM)", "value": 53.95, "unit": "%"}, {"measurement": "% of apoptotic (sub-G0/G1) cells", "setting": "[7]; Hepa 1-6, 72 hrs, 1 mM (text: μM)", "value": 62.49, "unit": "%"}, {"measurement": "DNA fragmentation (agarose gel, FIG. 3)", "setting": "[8]", "value": "induced DNA fragmentation"}]}]}
